Data as given in the supplement of paper PMC10307832.

What was measured:
Assay in all cases: relative viability (nuclei count vs DMSO), 5 days (fraction); higher = more cells survive
[1] = compound: CN(C)CC1=CC(=CC=C1)N=C(C2=CC=CC=C2)C3=C(NC4=C3C=CC(=C4)C(=O)N(C)C)O + CC(=O)c1c(C)c2cnc(Nc3ccc(N4CCNCC4)cn3)nc2n(C2CCCC2)c1=O [Palbociclib] (partner 0.5 µM)
In short: (§1)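 Lung cancer cell lines, seeded in 1536-well plates, were treated the following day by pin tool with a single drug or with five library-drug doses (not always all listed) in √10 steps on top of a fixed anchor-drug dose. Cells were fixed and nuclei stained in one step after 5 days, and nuclei were counted. Relative viability is the nuclei count for treated wells divided by that for vehicle wells, reported as medians of duplicate plates.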

[2] = compound: CN(C)CC1=CC(=CC=C1)N=C(C2=CC=CC=C2)C3=C(NC4=C3C=CC(=C4)C(=O)N(C)C)O + CC(C)C[C@H](NC(=O)[C@H](Cc1ccccc1)NC(=O)c1cnccn1)B(O)O [Bortezomib] (partner 0.002 µM)
In short: as §1

[3] = compound: CN(C)CC1=CC(=CC=C1)N=C(C2=CC=CC=C2)C3=C(NC4=C3C=CC(=C4)C(=O)N(C)C)O + COc1cc2c(Oc3ccc(NC(=O)C4(C(=O)Nc5ccc(F)cc5)CC4)cc3F)ccnc2cc1OCCCN1CCOCC1 [Foretinib] (partner 0.25 µM)
In short: as §1

[4] = compound: CN(C)CC1=CC(=CC=C1)N=C(C2=CC=CC=C2)C3=C(NC4=C3C=CC(=C4)C(=O)N(C)C)O + CS(=O)(=O)N1CCN(Cc2cc3nc(-c4cccc5[nH]ncc45)nc(N4CCOCC4)c3s2)CC1 [Pictilisib] (partner 1 µM)
In short: as §1

Row | Cell Line | relative viability ([1]; first compound 0.08 µM) | relative viability ([1]; first compound 0.253 µM) | relative viability ([1]; first compound 0.8 µM) | relative viability ([1]; first compound 2.53 µM) | relative viability ([1]; first compound 8 µM) | relative viability ([2]; first compound 0.08 µM) | relative viability ([2]; first compound 0.253 µM) | relative viability ([2]; first compound 0.8 µM) | relative viability ([2]; first compound 2.53 µM) | relative viability ([2]; first compound 8 µM) | relative viability ([3]; first compound 0.08 µM) | relative viability ([3]; first compound 0.253 µM) | relative viability ([3]; first compound 0.8 µM) | relative viability ([3]; first compound 2.53 µM) | relative viability ([3]; first compound 8 µM) | relative viability ([4]; first compound 0.08 µM) | relative viability ([4]; first compound 0.253 µM) | relative viability ([4]; first compound 0.8 µM) | relative viability ([4]; first compound 2.53 µM) | relative viability ([4]; first compound 8 µM)
1 | HCC-78 | 0.504 | 0.516 | 0.501 | 0.403 | 0.52 | 0.596 | 0.458 | 0.468 | 0.512 | 0.405 | 0.564 | 0.582 | 0.472 | 0.61 | 0.547 | 0.197 | 0.24 | 0.24 | 0.206 | 0.224
2 | HCC-366 | 0.406 | 0.364 | 0.404 | 0.412 | 0.341 | 0.949 | 1.01 | 1.03 | 0.906 | 0.9 | 0.903 | 0.889 | 0.888 | 0.83 | 0.85 | 0.177 | 0.179 | 0.166 | 0.111 | 0.127
3 | HCC-827 | 0.516 | 0.385 | 0.38 | 0.52 | 0.472 | 1.08 | 1.03 | 1.08 | 1.08 | 1.05 | 1.05 | 1.08 | 1.01 | 1.02 | 0.876 | 1 | 1.05 | 0.863 | 1.06 | 0.8
4 | HOP-62 | 0.372 | 0.445 | 0.441 | 0.43 | 0.4 | 0.875 | 1.25 | 0.746 | 0.801 | 0.72 | 1.08 | 1.01 | 1.12 | 1.05 | 1.17 | 0.817 | 0.7 | 0.587 | 0.943 | 0.497
5 | IA-LM |  |  |  |  |  |  | 0.876 | 1.12 | 1.06 | 1.11 | 1.16 | 1.19 | 1.3 | 1.18 | 1.32 | 0.361 | 0.463 | 0.342 | 0.389 | 0.579
6 | LC-2-ad | 0.404 | 0.512 | 0.475 | 0.456 | 0.486 | 1.08 | 1.1 | 1.03 | 0.979 | 0.995 | 0.993 | 0.881 | 0.884 | 0.919 | 0.969 | 0.453 | 0.383 | 0.442 | 0.521 | 0.231
7 | LK-2 | 0.52 | 0.814 | 0.605 | 0.561 | 0.541 |  |  |  |  |  | 1.15 | 1.16 | 1.27 | 1.15 | 1.17 | 0.52 | 0.482 | 0.591 | 0.53 | 0.473
8 | NCI-H358 | 0.122 | 0.139 | 0.141 | 0.149 | 0.17 |  |  |  |  |  | 0.696 | 0.808 | 0.515 | 0.585 | 0.506 | 0.384 | 0.28 | 0.34 | 0.331 | 0.347
9 | NCI-H522 | 0.956 | 1.04 | 0.906 | 0.886 | 0.923 |  |  |  |  |  |  |  |  |  |  |  |  |  |  | 
10 | NCI-H596 |  |  |  |  |  | 1.05 | 1.17 | 1.07 | 1.11 | 1.26 | 0.593 | 0.971 | 0.845 | 0.883 | 0.807 | 0.383 | 0.432 | 0.384 | 0.374 | 0.429
11 | NCI-H1299 |  |  |  |  |  | 1.02 | 1.04 | 1.01 | 0.996 | 0.912 | 1.09 | 1.06 | 1.14 | 1.04 | 1.08 | 0.509 | 0.854 | 0.849 | 0.6 | 0.355
12 | NCI-H1395 | 0.617 | 0.612 | 0.698 | 0.544 | 0.602 |  |  |  |  |  | 0.97 | 1.01 | 1.04 | 0.854 | 0.92 | 0.649 | 0.619 | 0.651 | 0.489 | 0.579
13 | NCI-H1563 |  |  |  |  |  | 0.868 | 0.921 | 0.729 | 0.755 | 0.737 | 0.941 | 0.967 | 0.917 | 0.857 | 0.948 | 0.72 | 0.637 | 0.613 | 0.638 | 0.617
14 | NCI-H1648 | 0.274 | 0.276 |  | 0.365 | 0.315 |  |  |  |  |  |  |  |  |  |  |  |  |  |  | 
15 | NCI-H1703 |  |  |  |  |  | 0.311 | 0.307 | 0.377 | 0.29 | 0.207 | 0.334 | 0.489 | 0.333 | 0.261 | 0.316 | 0.377 |  | 0.26 | 0.215 | 0.223
16 | NCI-H1792 | 0.666 | 0.638 | 0.673 | 0.641 | 0.665 | 0.641 | 0.911 | 0.906 | 0.933 | 0.911 |  |  |  |  |  | 0.303 | 0.248 | 0.27 | 0.207 | 0.18
17 | NCI-H1793 | 0.27 | 0.363 | 0.326 | 0.329 | 0.351 |  |  |  |  |  | 0.745 | 0.66 |  | 0.734 | 0.621 | 0.355 | 0.266 | 0.32 | 0.35 | 0.345
18 | NCI-H1944 | 0.32 | 0.344 | 0.282 | 0.357 | 0.33 |  |  |  |  |  | 0.888 | 0.923 | 0.877 | 0.86 | 0.785 | 0.36 | 0.343 | 0.318 | 0.367 | 0.322
19 | NCI-H2170 | 0.443 | 0.384 | 0.341 | 0.368 | 0.397 |  |  |  |  |  | 0.99 | 1.01 | 1.03 | 0.966 | 0.857 | 0.299 | 0.329 | 0.238 | 0.303 | 0.297
20 | NCI-H2342 | 0.519 | 0.528 | 0.549 | 0.547 | 0.605 |  |  |  |  |  | 1.08 | 1.06 | 0.979 | 1.17 | 1.05 |  |  |  |  | 
21 | SK-MES-1 | 0.325 | 0.277 | 0.357 | 0.305 | 0.343 |  |  |  |  |  | 0.84 | 0.975 | 0.844 | 0.87 | 0.901 | 0.301 | 0.316 | 0.368 | 0.332 | 0.249
22 | SW 900 | 0.517 | 0.481 | 0.527 | 0.569 | 0.622 |  |  |  |  |  | 0.867 | 0.842 | 0.7 | 0.887 | 0.861 |  |  |  |  | 
